Test results reported in ChEMBL document CHEMBL5620408, “Discovery of novel diarypyrimidine derivatives bearing six-membered non-aromatic heterocycles as potent HIV-1 NNRTIs with improved anti-resistance and drug-like profiles” (Eur J Med Chem, 2023).
Active and inactive are the calls of the source. The rule behind the calls is not given here.

How the values were obtained:
[1] = system: Human immunodeficiency virus 1; assay: Antiviral activity against HIV1 NL4-3 infected in MT4 cells; type: functional, organism-based; settings: Human immunodeficiency virus 1, NL4-3, MT4
MT4 = assay: Cytotoxicity against human MT4 cells; type: toxicity, cell-based
[2] = Cytotoxicity against human MT4 cells assessed as reduction in cell viability by MTT assay; type: toxicity, cell-based
[3] = Selectivity index, ratio of CC50 for human MT4 cells to EC50 for antiviral activity against HIV IIIB
[4] = Selectivity index, ratio of CC50 for human MT4 cells to EC50 for antiviral activity against HIV RES056
[5] = biological target: Human immunodeficiency virus type 1 reverse transcriptase (Human immunodeficiency virus 1, UniProt Q72547); assay: Inhibition of wild type HIV-1 reverse transcriptase
[6] = system: Human immunodeficiency virus 1; assay: microbe, parasite or virus in culture; settings: Human immunodeficiency virus 1, IIIB, MT4
Description: Antiviral activity against HIV1 IIIB infected in MT-4 cells assessed as viral induced cytopathic effect by MTT assay

[7] = system: Human immunodeficiency virus 1; assay: microbe, parasite or virus in culture; settings: Human immunodeficiency virus 1, RES056, MT4
Description: Antiviral activity against HIV1 RES056 infected in MT-4 cells assessed as viral induced cytopathic effect by MTT assay

[8] = system: Human immunodeficiency virus 1; assay: Antiviral activity against HIV1 harboring L100I mutant infected in MT4 cells; type: functional, organism-based; settings: Human immunodeficiency virus 1, MT4
[9] = system: Human immunodeficiency virus 1; assay: Antiviral activity against HIV1 harboring K103N mutant infected in MT4 cells; type: functional, organism-based; settings: Human immunodeficiency virus 1, MT4
[10] = system: Human immunodeficiency virus 1; assay: Antiviral activity against HIV1 harboring Y181C mutant infected in MT4 cells; type: functional, organism-based; settings: Human immunodeficiency virus 1, MT4
[11] = system: Human immunodeficiency virus 1; assay: Antiviral activity against HIV1 harboring Y188L mutant infected in MT4 cells; type: functional, organism-based; settings: Human immunodeficiency virus 1, MT4
[12] = system: Human immunodeficiency virus 1; assay: Antiviral activity against HIV1 harboring E138K mutant infected in MT4 cells; type: functional, organism-based; settings: Human immunodeficiency virus 1, MT4
[13] = system: Human immunodeficiency virus 1; assay: Antiviral activity against HIV1 harboring F227L/V106A double mutant infected in MT4 cells; type: functional, organism-based; settings: Human immunodeficiency virus 1, MT4
[14] = system: Human immunodeficiency virus 1; assay: Antiviral activity against HIV1 NL4-3 infected in MT4 cells at 25 ng/ml; type: functional, organism-based

SMILES	EC50 [1]	Activity (MT4)	CC50 [2]	selectivity ratio [3]	selectivity ratio [4]	IC50 [5]	EC50 [6]	EC50 [7]	EC50 [8]	EC50 [9]	EC50 [10]	EC50 [11]	EC50 [12]	EC50 [13]	Activity [14]
Cc1cc(/C=C/C#N)cc(C)c1Oc1ccnc(Nc2ccc(C3CCN(S(=O)(=O)C(C)C)CC3)cc2)n1	11.9 nM	Non-Toxic	2380 nM	298	< 1	130 nM	8 nM	> 2380 nM							
Cc1cc(/C=C/C#N)cc(C)c1Oc1ccnc(Nc2ccc(C3CCN(S(=O)(=O)N(C)C)CC3)cc2)n1	24.8 nM	Non-Toxic	6270 nM	686	< 1	100 nM	9 nM	> 6270 nM							
Cc1cc(C#N)cc(C)c1Oc1ccnc(Nc2ccc(N3CCN(S(C)(=O)=O)CC3)c(F)c2)n1	5.74 nM	Non-Toxic	7750 nM	1240	< 1	43 nM	6 nM	> 7750 nM							
Cc1cc(/C=C/C#N)cc(C)c1Oc1ccnc(Nc2ccc(N3CCN(S(C)(=O)=O)CC3)cc2)n1	1.84 nM	Non-Toxic	2570 nM	536	< 1	65 nM	5 nM	> 2570 nM	370 nM	37 nM	960 nM	> 2570 nM	850 nM	270 nM	
O=C1Nc2ccc(Cl)cc2[C@@](C#CC2CC2)(C(F)(F)F)O1 [EFAVIRENZ]			> 6330 nM						53 nM			250 nM			
Cc1cc(/C=C/C#N)cc(C)c1Oc1ccnc(Nc2ccc(N3CCN(S(=O)(=O)N(C)C)CC3)cc2)n1	28.9 nM	Non-Toxic	78100 nM	10200	< 1	140 nM	8 nM	> 78100 nM							
Cc1cc(C#N)cc(C)c1Oc1ccnc(Nc2ccc(C3CCN(S(=O)(=O)C4CC4)CC3)cc2)n1		Non-Toxic													inactive
Cc1cc(/C=C/C#N)cc(C)c1Oc1ccnc(Nc2ccc(N3CCN(S(=O)(=O)C(C)C)CC3)c(F)c2)n1	5.3 nM	Non-Toxic	18100 nM	3620	3	97 nM	5 nM	5880 nM	42 nM	7 nM	94 nM	> 18100 nM	29 nM	100 nM	
CCS(=O)(=O)N1CCN(c2ccc(Nc3nccc(Oc4c(C)cc(C#N)cc4C)n3)cc2)CC1		Non-Toxic													inactive
Cc1cc(/C=C/C#N)cc(C)c1Oc1ccnc(Nc2ccc(N3CCN(S(C)(=O)=O)CC3)c(F)c2)n1	0.48 nM	Non-Toxic	3210 nM	1710	5	40 nM	2 nM	670 nM	22 nM	3 nM	30 nM	> 3210 nM	11 nM	34 nM	
CCS(=O)(=O)N1CCC(c2ccc(Nc3nccc(Oc4c(C)cc(/C=C/C#N)cc4C)n3)cc2)CC1	5.7 nM	Non-Toxic	> 38600 nM	> 7360		71 nM	5 nM	> 38600 nM							
Cc1cc(/C=C/C#N)cc(C)c1Nc1ccnc(Nc2ccc(C#N)cc2)n1 [RILPIVIRINE]	0.6 nM	Non-Toxic				430 nM									
CCS(=O)(=O)N1CCN(c2ccc(Nc3nccc(Oc4c(C)cc(/C=C/C#N)cc4C)n3)cc2)CC1	2.18 nM	Non-Toxic	> 38600 nM	> 7740		100 nM	5 nM	> 38600 nM	450 nM	48 nM	810 nM	> 38600 nM	85 nM	240 nM	
Cc1cc(/C=C/C#N)cc(C)c1Oc1ccnc(Nc2ccc(N3CCOCC3)c(F)c2)n1			228000 nM	49600	272	46 nM	5 nM	840 nM	27 nM	5 nM	44 nM	4190 nM	25 nM	100 nM	
CCS(=O)(=O)N1CCN(c2ccc(Nc3nccc(Oc4c(C)cc(C#N)cc4C)n3)cc2F)CC1	10.2 nM	Non-Toxic	> 245000 nM	> 55100		58 nM	4 nM	> 245000 nM	130 nM	21 nM	190 nM	> 245000 nM	64 nM	55 nM	
Cc1cn([C@H]2C[C@H](N=[N+]=[N-])[C@@H](CO)O2)c(=O)[nH]c1=O [ZIDOVUDINE]	15.3 nM	Non-Toxic	> 7480 nM					37 nM							
Cc1cc(/C=C/C#N)cc(C)c1Oc1ccnc(Nc2ccc(C3CCN(S(C)(=O)=O)CC3)cc2)n1	6.23 nM	Non-Toxic	4300 nM	1030	< 1	44 nM	4 nM	> 4300 nM	92 nM	14 nM	320 nM	> 4300 nM	30 nM	42 nM	
Cc1cc(/C=C/C#N)cc(C)c1Oc1ccnc(Nc2ccc(N3CC[S+]([O-])CC3)c(F)c2)n1			13300 nM	9800	10	27 nM	1 nM	1300 nM	34 nM	4 nM	84 nM	5120 nM	24 nM	130 nM	
Cc1cc(/C=C/C#N)cc(C)c1Oc1ccnc(Nc2ccc(N3CCN(S(=O)(=O)C4CC4)CC3)cc2)n1	6.12 nM	Non-Toxic	216000 nM	37300	< 1	83 nM	6 nM	> 216000 nM							
Cc1cc(/C=C/C#N)cc(C)c1Oc1ccnc(Nc2ccc(N3CCN(S(=O)(=O)N(C)C)CC3)c(F)c2)n1	5.67 nM	Non-Toxic	4590 nM	993	< 1	78 nM	5 nM	> 4590 nM	58 nM	9 nM	120 nM	> 4590 nM	32 nM	68 nM	
Cc1cc(C#N)cc(C)c1Oc1ccnc(Nc2ccc(N3CCN(S(=O)(=O)C(C)C)CC3)c(F)c2)n1	24.6 nM	Non-Toxic	192000 nM	24500	< 1	140 nM	8 nM	> 192000 nM							
Cc1cc(C#N)cc(C)c1Oc1ccnc(Nc2ccc(N3CCN(S(=O)(=O)C4CC4)CC3)c(F)c2)n1	8.32 nM	Non-Toxic	> 239000 nM	> 40600		77 nM	6 nM	> 239000 nM							
Cc1ccnc2c1NC(=O)c1cccnc1N2C1CC1 [NEVIRAPINE]			> 15000 nM					> 15000 nM		6040 nM	7400 nM	> 15000 nM		> 15000 nM	
CCS(=O)(=O)N1CCN(c2ccc(Nc3nccc(Oc4c(C)cc(/C=C/C#N)cc4C)n3)cc2F)CC1	1.64 nM	Non-Toxic	111000 nM	37900	64	54 nM	3 nM	1730 nM	21 nM	4 nM	30 nM	> 111000 nM	15 nM	36 nM	
Cc1cc(C#N)cc(C)c1Oc1nc(Nc2ccc(C#N)cc2)nc(N)c1Br [ETRAVIRINE]			> 4590 nM					76 nM		1 nM				25 nM	
Cc1cc(/C=C/C#N)cc(C)c1Oc1ccnc(Nc2ccc(C3CCN(S(=O)(=O)C4CC4)CC3)cc2)n1	5.95 nM	Non-Toxic	> 37800 nM	> 7650		79 nM	5 nM	> 37800 nM	110 nM	20 nM	380 nM	> 37800 nM	51 nM	57 nM	
Cc1cc(/C=C/C#N)cc(C)c1Oc1ccnc(Nc2ccc(CN3CCN(S(C)(=O)=O)CC3)cc2)n1	0.79 nM	Non-Toxic				33 nM			14 nM	4 nM		1320 nM	9 nM	210 nM	
Cc1cc(/C=C/C#N)cc(C)c1Oc1ccnc(Nc2ccc(N3CCN(S(=O)(=O)C(C)C)CC3)cc2)n1	25.5 nM	Non-Toxic	1730 nM	193	< 1	130 nM	9 nM	> 1730 nM							
